From patent US4512980A, “Peptide, process for preparation thereof and use thereof” (priority 1979, dated 1985)

How the values were obtained:
Mice (DDY male 5-6 W) = experiment: Blood stream clearance of carbon; format: in vivo; conditions: carbon clearance measured 24 hours later
Procedure: 1. Carbon suspension. Rotoring drawing ink (170 mg carbon/ml.) was diluted to 1/5 of the original concentration in saline containing 1% gelatin. 2. 0.1% aqueous sodium carbonate solution. Mice (DDY male 5-6 W) were injected via the tail vein with a dose of 0.01 ml/g body weight of carbon. Blood samples were taken by means of a pointed capillary […] calibrated to hold a 50 μl and previously washed in heparin. This was plunged into the retroorbital venous sinus at the nasal angle of the eye. The samples were removed at 3 and 6 min. The blood was immediately discharged into 3.0 ml. of the sodium carbonate solution. This hemolyzed the blood and allowed the quantitation of carbon. The samples were then read in a spectrophotometer at 660 nm, the log concentration being obtained from a previously determined standard curve. The clearance value K may be determined by plotting log carbon concentration against time according to the following relationship; [formula] in which T1 and T2 represent the time in min when the sample were withdrawn and C1 and C2 represent the concentrations of carbon in the blood at the time T1 and T2, respectively. The aqueous solution of the drug as given was administered subcutaneously to mice. Twenty four hours later, blood stream clearance of carbon was measured. K value obtained with treated mice was compared with that of control mice.

E. coli 22 = experiment: Protective efficacy in experimental infection in mice; format: in vivo; conditions: male ICR mice, E. coli 22 i.p., survival after four days
Procedure: In determining the protective efficacy against experimental infections in mice, the test compound was dissolved in and diluted with sterile saline to provide prescribed concentrations of drug.
Male ICR-strain mice, aged 4 weeks were used in groups of ten mice. E. coli 22 was cultivated overnight at 37° C. on trypticase soy agar and then were suspended in a sterile saline to obtain microbial cell concentration of 9.0×10^7 CFU/ml. Mice were inoculated intraperitoneally with 0.2 ml of the suspension. Each of the test drugs was given intraperitoneally in various doses to a group of ten mice 24 hours before challenge.
Survival percent were found from the number of the surviving animals after four days of injection.

## D-Lac-L-Ala-γ-D-Glu(α-OH)-(L)-[D-Lac-L-Ala-γ-D-Glu(α-OH)-(L)-mesoDAP-(D)-Gly]-(D)-mesoDAP-(L)-GlyOH [Example 13 (Step 2)]
Mice (DDY male 5-6 W); dose 1 mg/mouse subcutaneously
  K treated/K control: 0.6
Mice (DDY male 5-6 W); dose 100 mg/mouse subcutaneously
  K treated/K control: 1.6
E. coli 22; dose 1 mg/kg intraperitoneally 24 hours before challenge
  Survival (%): 100%
E. coli 22; dose 10 mg/kg intraperitoneally 24 hours before challenge
  Survival (%): 100%
